Results taken from ChEMBL document CHEMBL1201861, “Genomics of Drug Sensitity in Cancer screening data, Wellcome Trust Sanger Institute”.

Assays:
Assay in all cases: cells
CP50-MEL-B = type: functional, cell-based, Homo sapiens; conditions: Homo sapiens, CP50-MEL-B;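 further: growth inhibition of the human cell line, measured with a cell viability read-out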
Description: SANGER: Inhibition of human CP50-MEL-B cell growth in a cell viability assay.

DEL = type: functional, cell-based; conditions: Homo sapiens;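 further: growth inhibition of the human DEL cell line, read out with a cell viability assay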
Description: SANGER: Inhibition of human DEL cell growth in a cell viability assay.

DOHH-2 = type: functional, cell-based; conditions: Homo sapiens;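 further: growth inhibition of human DOHH-2 cells, read out with a cell viability assay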
Description: SANGER: Inhibition of human DOHH-2 cell growth in a cell viability assay.

DOK = type: functional, cell-based, Homo sapiens; conditions: Homo sapiens, DOK;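 further: cell viability assay read-out, values reflect inhibition of cell growth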
Description: SANGER: Inhibition of human DOK cell growth in a cell viability assay.

Daoy = type: functional, cell-based, Homo sapiens; conditions: Homo sapiens, Daoy;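 further: daoy cell growth inhibition, read out as cell viability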
Description: SANGER: Inhibition of human Daoy cell growth in a cell viability assay.

ETK-1 = type: functional, cell-based, Homo sapiens; conditions: Homo sapiens, ETK-1;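 further: growth inhibition of human ETK-1 cells, read out with a cell viability assay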
Description: SANGER: Inhibition of human ETK-1 cell growth in a cell viability assay.

EW-1 = type: functional, cell-based, Homo sapiens; conditions: Homo sapiens, EW-1
Description: SANGER: Inhibition of human EW-1 cell growth in a cell viability assay.

EW-18 = type: functional, cell-based; conditions: Homo sapiens;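 further: growth inhibition of EW-18 cells, read out by a cell viability assay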
Description: SANGER: Inhibition of human EW-18 cell growth in a cell viability assay.

EW-24 = type: functional, cell-based; conditions: Homo sapiens;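 further: human EW-24 cancer cell line, growth inhibition read out via a cell viability assay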
Description: SANGER: Inhibition of human EW-24 cell growth in a cell viability assay.

GCIY = type: functional, cell-based, Homo sapiens; conditions: Homo sapiens, GCIY;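 further: growth inhibition of the human GCIY cell line, read out by a cell viability assay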
Description: SANGER: Inhibition of human GCIY cell growth in a cell viability assay.

HCC2157 = type: functional, cell-based; conditions: Homo sapiens;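 further: growth inhibition of the cancer cell line, read out as cell viability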
Description: SANGER: Inhibition of human HCC2157 cell growth in a cell viability assay.

HEC-1 = type: functional, cell-based, Homo sapiens; conditions: Homo sapiens, HEC-1;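 further: growth inhibition of the cell line, read out with a cell viability assay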
Description: SANGER: Inhibition of human HEC-1 cell growth in a cell viability assay.

HLE = type: functional, cell-based, Homo sapiens; conditions: Homo sapiens, HLE;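 further: growth inhibition of human HLE cells, read out by a cell viability assay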
Description: SANGER: Inhibition of human HLE cell growth in a cell viability assay.

HuO-3N1 = type: functional, cell-based, Homo sapiens; conditions: Homo sapiens, HuO-3N1;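 further: cell viability readout used to measure how strongly compounds suppress proliferation of human HuO-3N1 cells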
Description: SANGER: Inhibition of human HuO-3N1 cell growth in a cell viability assay.

JAR = type: functional, cell-based, Homo sapiens; conditions: Homo sapiens, JAR;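 further: growth inhibition of human JAR cells determined with a cell viability assay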
Description: SANGER: Inhibition of human JAR cell growth in a cell viability assay.

KU-19-19 = type: functional, cell-based, Homo sapiens; conditions: Homo sapiens, KU-19-19
Description: SANGER: Inhibition of human KU-19-19 cell growth in a cell viability assay.

L-428 = type: functional, cell-based; conditions: Homo sapiens
Description: SANGER: Inhibition of human L-428 cell growth in a cell viability assay.

LS-513 = type: functional, cell-based, Homo sapiens; conditions: Homo sapiens, LS-513
Description: SANGER: Inhibition of human LS-513 cell growth in a cell viability assay.

MEL-HO = type: functional, cell-based, Homo sapiens; conditions: Homo sapiens, MEL-HO
Description: SANGER: Inhibition of human MEL-HO cell growth in a cell viability assay.

MKN-45 = type: functional, cell-based, Homo sapiens; conditions: Homo sapiens, MKN-45;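 further: growth inhibition of human MKN-45 cells, measured with a cell viability assay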
Description: SANGER: Inhibition of human MKN45 cell growth in a cell viability assay.

MZ2-MEL = type: functional, cell-based, Homo sapiens; conditions: Homo sapiens, MZ2-MEL;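 further: growth inhibition of MZ2-MEL cells read out with a cell viability assay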
Description: SANGER: Inhibition of human MZ2-MEL cell growth in a cell viability assay.

NCI-H1838 = type: functional, cell-based, Homo sapiens; conditions: Homo sapiens, NCI-H1838;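 further: growth inhibition of NCI-H1838 cells, determined with a cell viability readout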
Description: SANGER: Inhibition of human NCI-H1838 cell growth in a cell viability assay.

NCI-H226 = type: functional, cell-based, Homo sapiens; conditions: Homo sapiens, NCI-H226;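 further: cell viability read-out used to gauge growth inhibition of the cells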
Description: SANGER: Inhibition of human NCI-H226 cell growth in a cell viability assay.

NCI-H510A = type: functional, cell-based; conditions: Homo sapiens;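 further: growth inhibition of NCI-H510A cells, read out with a cell viability assay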
Description: SANGER: Inhibition of human NCI-H510A cell growth in a cell viability assay.

NCI-H727 = type: functional, cell-based, Homo sapiens; conditions: Homo sapiens, NCI-H727;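 further: growth inhibition of human NCI-H727 cells, read out with a cell viability assay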
Description: SANGER: Inhibition of human NCI-H727 cell growth in a cell viability assay.

NOS-1 = type: functional, cell-based, Homo sapiens; conditions: Homo sapiens, NOS-1;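 further: growth inhibition of the human NOS-1 cell line, read out with a cell viability assay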
Description: SANGER: Inhibition of human NOS-1 cell growth in a cell viability assay.

NUGC-3 = type: functional, cell-based, Homo sapiens; conditions: Homo sapiens, NUGC-3;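 further: growth inhibition of human NUGC-3 cells, read out with a cell viability assay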
Description: SANGER: Inhibition of human NUGC-3 cell growth in a cell viability assay.

RERF-LC-MS = type: functional, cell-based, Homo sapiens; conditions: Homo sapiens, RERF-LC-MS;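 further: growth inhibition of human RERF-LC-MS cells, read out by a cell viability assay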
Description: SANGER: Inhibition of human RERF-LC-MS cell growth in a cell viability assay.

RKO = type: functional, cell-based, Homo sapiens; conditions: Homo sapiens, RKO;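 further: growth inhibition of human RKO cells, read out with a cell viability assay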
Description: SANGER: Inhibition of human RKO cell growth in a cell viability assay.

RMG-I = type: functional, cell-based, Homo sapiens; conditions: Homo sapiens, RMG-I;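 further: growth inhibition of human RMG-I cells, read out with a cell viability assay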
Description: SANGER: Inhibition of human RMG-I cell growth in a cell viability assay.

S-117 = type: functional, cell-based, Homo sapiens; conditions: Homo sapiens, S-117
Description: SANGER: Inhibition of human S-117 cell growth in a cell viability assay.

SF-539 = type: functional, cell-based, Homo sapiens; conditions: Homo sapiens, SF-539;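 further: Read-out is a cell viability assay, with IC50 reflecting inhibition of cell growth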
Description: SANGER: Inhibition of human SF539 cell growth in a cell viability assay.

SH-4 = type: functional, cell-based, Homo sapiens; conditions: Homo sapiens, SH-4;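 further: growth inhibition of SH-4 cells, read out with a cell viability assay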
Description: SANGER: Inhibition of human SH-4 cell growth in a cell viability assay.

SK-MEL-1 = type: functional, cell-based; conditions: Homo sapiens;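 further: growth inhibition of human SK-MEL-1 cells, read out by a cell viability assay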
Description: SANGER: Inhibition of human SK-MEL-1 cell growth in a cell viability assay.

SK-PN-DW = type: functional, cell-based; conditions: Homo sapiens;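 further: growth inhibition measured with a viability assay on these cells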
Description: SANGER: Inhibition of human SK-PN-DW cell growth in a cell viability assay.

SNU-C2B = type: functional, cell-based, Homo sapiens; conditions: Homo sapiens, SNU-C2B;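 further: cell viability readout used to measure compound-driven suppression of SNU-C2B cell proliferation, IC50 marking half-maximal growth inhibition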
Description: SANGER: Inhibition of human SNU-C2B cell growth in a cell viability assay.

SW1710 = type: functional, cell-based, Homo sapiens; conditions: Homo sapiens, SW1710;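 further: growth inhibition of SW1710 cells, determined with a cell viability assay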
Description: SANGER: Inhibition of human SW1710 cell growth in a cell viability assay.

SW48 = type: functional, cell-based, Homo sapiens; conditions: Homo sapiens, SW48;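 further: growth inhibition of SW48 cells, read out with a cell viability assay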
Description: SANGER: Inhibition of human SW48 cell growth in a cell viability assay.

SW684 = type: functional, cell-based, Homo sapiens; conditions: Homo sapiens, SW684;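 further: growth inhibition of human SW684 cells, measured by a cell viability assay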
Description: SANGER: Inhibition of human SW684 cell growth in a cell viability assay.

SW756 = type: functional, cell-based, Homo sapiens; conditions: Homo sapiens, SW756;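 further: growth inhibition of human SW756 cells, read out with a cell viability assay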
Description: SANGER: Inhibition of human SW756 cell growth in a cell viability assay.

T-24 = type: functional, cell-based, Homo sapiens; conditions: Homo sapiens, T-24;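 further: growth inhibition of T-24 cells, read out with a cell viability assay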
Description: SANGER: Inhibition of human T-24 cell growth in a cell viability assay.

T98G = type: functional, cell-based, Homo sapiens; conditions: Homo sapiens, T98G;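 further: growth inhibition of T98G cells, read out by a cell viability assay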
Description: SANGER: Inhibition of human T98G cell growth in a cell viability assay.

639-V = type: functional, cell-based, Homo sapiens; conditions: Homo sapiens, 639-V;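 further: growth inhibition of 639-V cells, read out with a cell viability assay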
Description: SANGER: Inhibition of human 639-V cell growth in a cell viability assay.

ACHN = type: functional, cell-based, Homo sapiens; conditions: Homo sapiens, ACHN;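 further: cell viability read-out used to gauge how strongly growth of human ACHN cells is suppressed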
Description: SANGER: Inhibition of human ACHN cell growth in a cell viability assay.

BCPAP = type: functional, cell-based, Homo sapiens; conditions: Homo sapiens, BCPAP;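 further: growth inhibition of BCPAP cells, read out in a cell viability assay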
Description: SANGER: Inhibition of human BCPAP cell growth in a cell viability assay.

CAL-54 = type: functional, cell-based, Homo sapiens; conditions: Homo sapiens, CAL-54;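 further: growth inhibition of CAL-54 cells, read out by a viability measurement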
Description: SANGER: Inhibition of human CAL-54 cell growth in a cell viability assay.

TE-11 = type: functional, cell-based, Homo sapiens; conditions: Homo sapiens, TE-11;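 further: growth inhibition of human TE-11 cells, read out by a cell viability assay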
Description: SANGER: Inhibition of human TE-11 cell growth in a cell viability assay.

TGW = type: functional, cell-based; conditions: Homo sapiens;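 further: growth inhibition of human TGW cells, read out with a cell viability assay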
Description: SANGER: Inhibition of human TGW cell growth in a cell viability assay.

UACC-62 = type: functional, cell-based, Homo sapiens; conditions: Homo sapiens, UACC-62;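 further: growth inhibition of human UACC-62 cells, read out by a cell viability assay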
Description: SANGER: Inhibition of human UACC-62 cell growth in a cell viability assay.

UACC-893 = type: functional, cell-based, Homo sapiens; conditions: Homo sapiens, UACC-893
Description: SANGER: Inhibition of human UACC-893 cell growth in a cell viability assay.

CAPAN-1 = type: functional, cell-based, Homo sapiens; conditions: Homo sapiens, CAPAN-1;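 further: growth suppression of CAPAN-1 cells, read out by a cell viability assay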
Description: SANGER: Inhibition of human CAPAN-1 cell growth in a cell viability assay.

COLO-679 = type: functional, cell-based, Homo sapiens; conditions: Homo sapiens, COLO-679
Description: SANGER: Inhibition of human COLO-679 cell growth in a cell viability assay.

Q: Which results are given for Cn1cncc1[C@@](N)(c1ccc(Cl)cc1)c1ccc2c(c1)c(-c1cccc(Cl)c1)cc(=O)n2C [TIPIFARNIB]?
A: IC50 (CP50-MEL-B): > 16000 nM; IC50 (DEL): 1030 nM; IC50 (DOHH-2): 7910 nM; IC50 (DOK): > 16000 nM; IC50 (Daoy): 57.5 nM; IC50 (ETK-1): 21.5 nM; IC50 (EW-1): 12300 nM; IC50 (EW-18): 458 nM; IC50 (EW-24): > 16000 nM; IC50 (GCIY): 12500 nM; IC50 (HCC2157): 323 nM; IC50 (HEC-1): 7150 nM; IC50 (HLE): 448 nM; IC50 (HuO-3N1): 4170 nM; IC50 (JAR): > 16000 nM; IC50 (KU-19-19): > 16000 nM; IC50 (L-428): > 16000 nM; IC50 (LS-513): > 16000 nM; IC50 (MEL-HO): 2240 nM; IC50 (MKN-45): 2790 nM; IC50 (MZ2-MEL): 1900 nM; IC50 (NCI-H1838): > 16000 nM; IC50 (NCI-H226): > 16000 nM; IC50 (NCI-H510A): > 16000 nM; IC50 (NCI-H727): 874 nM; IC50 (NOS-1): 2130 nM; IC50 (NUGC-3): 4190 nM; IC50 (RERF-LC-MS): > 16000 nM; IC50 (RKO): 1230 nM; IC50 (RMG-I): > 16000 nM; IC50 (S-117): 9590 nM; IC50 (SF-539): > 16000 nM; IC50 (SH-4): 1300 nM; IC50 (SK-MEL-1): > 16000 nM; IC50 (SK-PN-DW): 15500 nM; IC50 (SNU-C2B): 10400 nM; IC50 (SW1710): 726 nM; IC50 (SW48): 8610 nM; IC50 (SW684): > 16000 nM; IC50 (SW756): 13600 nM; IC50 (T-24): 13900 nM; IC50 (T98G): 11800 nM; IC50 (639-V): 1190 nM; IC50 (ACHN): 1120 nM; IC50 (BCPAP): 1320 nM; IC50 (CAL-54): 11900 nM; IC50 (TE-11): 1690 nM; IC50 (TGW): > 16000 nM; IC50 (UACC-62): > 16000 nM; IC50 (UACC-893): > 16000 nM; IC50 (CAPAN-1): > 16000 nM; IC50 (COLO-679): 985 nM

Q: Which IC50 (CP50-MEL-B) does the source give for CCC1=C[C@@H]2CN(C1)Cc1c([nH]c3ccccc13)[C@@](C(=O)OC)(c1cc3c(cc1OC)N(C)[C@H]1[C@@](O)(C(=O)OC)[C@H](OC(C)=O)[C@]4(CC)C=CCN5CC[C@]31[C@@H]54)C2 [VINORELBINE] here?
A: The IC50 was 43.4 nM.

Q: What about the IC50 (DEL) of the same compound?
A: Its IC50 is 3.63 nM.

Q: And the IC50 (DOHH-2)?
A: Its IC50 is 5.04 nM.

Q: What about the IC50 (DOK) of the same compound?
A: Its IC50 is greater than 64 nM.

Q: And the IC50 (Daoy)?
A: The IC50 was 6.65 nM.

Q: And the IC50 (ETK-1)?
A: Its IC50 is 6.92 nM.

Q: What about the IC50 (EW-1) of the same compound?
A: The IC50 was 3.93 nM.

Q: What about the IC50 (EW-18) of the same compound?
A: The IC50 was 7.05 nM.

Q: And the IC50 (EW-24)?
A: The IC50 was greater than 64 nM.

Q: What about the IC50 (GCIY) of the same compound?
A: Its IC50 is 57.9 nM.

Q: And the IC50 (HCC2157)?
A: Its IC50 is 18.8 nM.

Q: What about the IC50 (HEC-1) of the same compound?
A: The IC50 was 22.7 nM.

Q: What about the IC50 (HLE) of the same compound?
A: Its IC50 is 10.2 nM.

Q: And the IC50 (HuO-3N1)?
A: Its IC50 is 13 nM.

Q: And the IC50 (JAR)?
A: Its IC50 is greater than 64 nM.

Q: What about the IC50 (KU-19-19) of the same compound?
A: The IC50 was greater than 64 nM.

Q: And the IC50 (L-428)?
A: The IC50 was greater than 64 nM.

Q: What about the IC50 (LS-513) of the same compound?
A: Its IC50 is greater than 64 nM.

Q: What about the IC50 (MEL-HO) of the same compound?
A: The IC50 was 3.29 nM.

Q: And the IC50 (MKN-45)?
A: Its IC50 is 2.29 nM.

Q: And the IC50 (MZ2-MEL)?
A: The IC50 was 43 nM.

Q: And the IC50 (NCI-H1838)?
A: Its IC50 is greater than 64 nM.

Q: What about the IC50 (NCI-H226) of the same compound?
A: Its IC50 is 25 nM.

Q: What about the IC50 (NCI-H510A) of the same compound?
A: The IC50 was 15.5 nM.

Q: What about the IC50 (NCI-H727) of the same compound?
A: The IC50 was greater than 64 nM.

Q: And the IC50 (NOS-1)?
A: The IC50 was 41.3 nM.

Q: What about the IC50 (NUGC-3) of the same compound?
A: The IC50 was 5.99 nM.

Q: And the IC50 (RERF-LC-MS)?
A: Its IC50 is 10.2 nM.

Q: What about the IC50 (RKO) of the same compound?
A: The IC50 was 1.52 nM.

Q: What about the IC50 (RMG-I) of the same compound?
A: Its IC50 is greater than 64 nM.

Q: What about the IC50 (S-117) of the same compound?
A: The IC50 was greater than 64 nM.

Q: What about the IC50 (SF-539) of the same compound?
A: Its IC50 is 14.1 nM.

Q: And the IC50 (SH-4)?
A: The IC50 was 15.5 nM.

Q: And the IC50 (SK-MEL-1)?
A: The IC50 was greater than 64 nM.

Q: What about the IC50 (SK-PN-DW) of the same compound?
A: Its IC50 is 12.5 nM.

Q: And the IC50 (SNU-C2B)?
A: The IC50 was 7.75 nM.

Q: And the IC50 (SW1710)?
A: Its IC50 is 2.33 nM.

Q: What about the IC50 (SW48) of the same compound?
A: Its IC50 is 5.8 nM.

Q: What about the IC50 (SW684) of the same compound?
A: Its IC50 is 24.2 nM.

Q: What about the IC50 (SW756) of the same compound?
A: The IC50 was greater than 64 nM.

Q: And the IC50 (T-24)?
A: The IC50 was greater than 64 nM.

Q: And the IC50 (T98G)?
A: Its IC50 is 18.9 nM.

Q: What about the IC50 (639-V) of the same compound?
A: The IC50 was 6.61 nM.

Q: What about the IC50 (ACHN) of the same compound?
A: Its IC50 is 45.8 nM.

Q: And the IC50 (BCPAP)?
A: The IC50 was 2.98 nM.

Q: What about the IC50 (CAL-54) of the same compound?
A: The IC50 was greater than 64 nM.

Q: What about the IC50 (TE-11) of the same compound?
A: The IC50 was 9.16 nM.

Q: What about the IC50 (TGW) of the same compound?
A: The IC50 was greater than 64 nM.

Q: And the IC50 (UACC-62)?
A: The IC50 was 33.4 nM.

Q: And the IC50 (UACC-893)?
A: The IC50 was greater than 64 nM.

Q: What about the IC50 (CAPAN-1) of the same compound?
A: The IC50 was 14.2 nM.

Q: What about the IC50 (COLO-679) of the same compound?
A: Its IC50 is 1.83 nM.
